According to ChEMBL document CHEMBL4396865, “Current advances of triazole alcohols derived from fluconazole: Design, in vitro and in silico studies” (2019):
Converted amounts (≈) assume the structure as drawn.

Key:
Format in all cases: functional
Candida albicans = experiment: Antifungal activity against Candida albicans after 24 hrs by NCCLS protocol based method
Candida tropicalis = experiment: Antifungal activity against Candida tropicalis after 24 hrs by NCCLS protocol based method
Cryptococcus neoformans = experiment: Antifungal activity against Cryptococcus neoformans after 72 hrs by NCCLS protocol based method
Trichophyton rubrum = experiment: Antifungal activity against Trichophyton rubrum after 7 days by NCCLS protocol based method; conditions: 168 h
Nannizzia gypsea = experiment: Antifungal activity against Microsporum gypseum after 7 days by NCCLS protocol based method; conditions: 168 h
Candida parapsilosis = experiment: Antifungal activity against Candida parapsilosis after 24 hrs by NCCLS protocol based method; conditions: Lodderomyces parapsilosis
Fonsecaea compacta = experiment: Antifungal activity against Fonsecaea compacta after 24 hrs by NCCLS protocol based method

SMILES | MIC (Candida albicans) [ng/mL] | MIC (Candida tropicalis) [ng/mL] | MIC (Cryptococcus neoformans) [ng/mL] | MIC (Trichophyton rubrum) [ng/mL] | MIC (Nannizzia gypsea) [ng/mL] | MIC80 (Candida albicans) [ng/mL] | MIC80 (Candida tropicalis) [ng/mL] | MIC80 (Cryptococcus neoformans) [ng/mL] | MIC80 (Trichophyton rubrum) [ng/mL] | MIC80 (Candida parapsilosis) [ng/mL] | MIC80 (Fonsecaea compacta) [ng/mL]
CN(CCCCOc1ccccc1[N+](=O)[O-])CC(O)(Cn1cncn1)c1ccc(F)cc1F (stereo not drawn) | 1 to 16 (≈ 2.17 to 34.7 nM) | 1 to 16 (≈ 2.17 to 34.7 nM) | 1 to 16 (≈ 2.17 to 34.7 nM) | 1 to 16 (≈ 2.17 to 34.7 nM) | 1 to 16 (≈ 2.17 to 34.7 nM) |  |  |  |  |  | 
CN(CCCCOc1ccc(Cl)cc1)CC(O)(Cn1cncn1)c1ccc(F)cc1F (stereo not drawn) | 1 (≈ 2.22 nM) | 1 (≈ 2.22 nM) | 1 (≈ 2.22 nM) | 1 (≈ 2.22 nM) | 1 (≈ 2.22 nM) |  |  |  |  |  | 
CN(CCCOc1ccccc1Cl)CC(O)(Cn1cncn1)c1ccc(F)cc1F (stereo not drawn) | 1 to 16 (≈ 2.29 to 36.6 nM) | 1 to 16 (≈ 2.29 to 36.6 nM) | 1 to 16 (≈ 2.29 to 36.6 nM) | 1 to 16 (≈ 2.29 to 36.6 nM) | 1 to 16 (≈ 2.29 to 36.6 nM) |  |  |  |  |  | 
O=C(OC1CCN(CC(O)(Cn2cncn2)c2ccc(F)cc2F)CC1)c1ccccc1I (stereo not drawn) |  |  |  |  |  | 3.9 to 62.5 (≈ 6.86 to 110 nM) | 3.9 to 62.5 (≈ 6.86 to 110 nM) | 3.9 to 62.5 (≈ 6.86 to 110 nM) | 3.9 to 62.5 (≈ 6.86 to 110 nM) | 3.9 to 62.5 (≈ 6.86 to 110 nM) | 3.9 to 62.5 (≈ 6.86 to 110 nM)
CCCCc1ccc(C(=O)OC2CCN(CC(O)(Cn3cncn3)c3ccc(F)cc3F)CC2)cc1 (stereo not drawn) |  |  |  |  |  | 3.9 to 62.5 (≈ 7.82 to 125 nM) | 3.9 to 62.5 (≈ 7.82 to 125 nM) | 3.9 to 62.5 (≈ 7.82 to 125 nM) | 3.9 to 62.5 (≈ 7.82 to 125 nM) | 3.9 to 62.5 (≈ 7.82 to 125 nM) | 3.9 to 62.5 (≈ 7.82 to 125 nM)
Cc1ccccc1C(=O)OC1CCN(CC(O)(Cn2cncn2)c2ccc(F)cc2F)CC1 (stereo not drawn) |  |  |  |  |  | 3.9 to 62.5 (≈ 8.54 to 137 nM) | 3.9 to 62.5 (≈ 8.54 to 137 nM) | 3.9 to 62.5 (≈ 8.54 to 137 nM) | 3.9 to 62.5 (≈ 8.54 to 137 nM) | 3.9 to 62.5 (≈ 8.54 to 137 nM) | 3.9 to 62.5 (≈ 8.54 to 137 nM)
CC(C)(C)c1ccc(C(=O)OC2CCN(CC(O)(Cn3cncn3)c3ccc(F)cc3F)CC2)cc1 (stereo not drawn) |  |  |  |  |  | 3.9 to 62.5 (≈ 7.82 to 125 nM) | 3.9 to 62.5 (≈ 7.82 to 125 nM) | 3.9 to 62.5 (≈ 7.82 to 125 nM) | 3.9 to 62.5 (≈ 7.82 to 125 nM) | 3.9 to 62.5 (≈ 7.82 to 125 nM) | 3.9 to 62.5 (≈ 7.82 to 125 nM)
O=C(OC1CCN(CC(O)(Cn2cncn2)c2ccc(F)cc2F)CC1)c1ccccc1Cl (stereo not drawn) |  |  |  |  |  | 3.9 to 62.5 (≈ 8.18 to 131 nM) | 3.9 to 62.5 (≈ 8.18 to 131 nM) | 3.9 to 62.5 (≈ 8.18 to 131 nM) | 3.9 to 62.5 (≈ 8.18 to 131 nM) | 3.9 to 62.5 (≈ 8.18 to 131 nM) | 3.9 to 62.5 (≈ 8.18 to 131 nM)
CCc1ccc(C(=O)OC2CCN(CC(O)(Cn3cncn3)c3ccc(F)cc3F)CC2)cc1 (stereo not drawn) |  |  |  |  |  | 3.9 to 62.5 (≈ 8.29 to 133 nM) | 3.9 to 62.5 (≈ 8.29 to 133 nM) | 3.9 to 62.5 (≈ 8.29 to 133 nM) | 3.9 to 62.5 (≈ 8.29 to 133 nM) | 3.9 to 62.5 (≈ 8.29 to 133 nM) | 3.9 to 62.5 (≈ 8.29 to 133 nM)
O=C(OC1CCN(CC(O)(Cn2cncn2)c2ccc(F)cc2F)CC1)c1ccc(F)cc1 (stereo not drawn) |  |  |  |  |  | 3.9 to 62.5 (≈ 8.47 to 136 nM) | 3.9 to 62.5 (≈ 8.47 to 136 nM) | 3.9 to 62.5 (≈ 8.47 to 136 nM) | 3.9 to 62.5 (≈ 8.47 to 136 nM) | 3.9 to 62.5 (≈ 8.47 to 136 nM) | 3.9 to 62.5 (≈ 8.47 to 136 nM)
CCCc1ccc(C(=O)OC2CCN(CC(O)(Cn3cncn3)c3ccc(F)cc3F)CC2)cc1 (stereo not drawn) |  |  |  |  |  | 3.9 to 62.5 (≈ 8.05 to 129 nM) | 3.9 to 62.5 (≈ 8.05 to 129 nM) | 3.9 to 62.5 (≈ 8.05 to 129 nM) | 3.9 to 62.5 (≈ 8.05 to 129 nM) | 3.9 to 62.5 (≈ 8.05 to 129 nM) | 3.9 to 62.5 (≈ 8.05 to 129 nM)
O=C(OC1CCN(CC(O)(Cn2cncn2)c2ccc(F)cc2F)CC1)c1cccc(Cl)c1 (stereo not drawn) |  |  |  |  |  | 3.9 to 62.5 (≈ 8.18 to 131 nM) | 3.9 to 62.5 (≈ 8.18 to 131 nM) | 3.9 to 62.5 (≈ 8.18 to 131 nM) | 3.9 to 62.5 (≈ 8.18 to 131 nM) | 3.9 to 62.5 (≈ 8.18 to 131 nM) | 3.9 to 62.5 (≈ 8.18 to 131 nM)
O=C(OC1CCN(CC(O)(Cn2cncn2)c2ccc(F)cc2F)CC1)c1ccccc1Br (stereo not drawn) |  |  |  |  |  | 3.9 to 62.5 (≈ 7.48 to 120 nM) | 3.9 to 62.5 (≈ 7.48 to 120 nM) | 3.9 to 62.5 (≈ 7.48 to 120 nM) | 3.9 to 62.5 (≈ 7.48 to 120 nM) | 3.9 to 62.5 (≈ 7.48 to 120 nM) | 3.9 to 62.5 (≈ 7.48 to 120 nM)
Cc1cccc(C(=O)OC2CCN(CC(O)(Cn3cncn3)c3ccc(F)cc3F)CC2)c1 (stereo not drawn) |  |  |  |  |  | 3.9 to 62.5 (≈ 8.54 to 137 nM) | 3.9 to 62.5 (≈ 8.54 to 137 nM) | 3.9 to 62.5 (≈ 8.54 to 137 nM) | 3.9 to 62.5 (≈ 8.54 to 137 nM) | 3.9 to 62.5 (≈ 8.54 to 137 nM) | 3.9 to 62.5 (≈ 8.54 to 137 nM)
COc1cccc(C(=O)OC2CCN(CC(O)(Cn3cncn3)c3ccc(F)cc3F)CC2)c1 (stereo not drawn) |  |  |  |  |  | 3.9 to 62.5 (≈ 8.25 to 132 nM) | 3.9 to 62.5 (≈ 8.25 to 132 nM) | 3.9 to 62.5 (≈ 8.25 to 132 nM) | 3.9 to 62.5 (≈ 8.25 to 132 nM) | 3.9 to 62.5 (≈ 8.25 to 132 nM) | 3.9 to 62.5 (≈ 8.25 to 132 nM)
O=C(OC1CCN(CC(O)(Cn2cncn2)c2ccc(F)cc2F)CC1)c1ccccc1 (stereo not drawn) |  |  |  |  |  | 3.9 to 62.5 (≈ 8.81 to 141 nM) | 3.9 to 62.5 (≈ 8.81 to 141 nM) | 3.9 to 62.5 (≈ 8.81 to 141 nM) | 3.9 to 62.5 (≈ 8.81 to 141 nM) | 3.9 to 62.5 (≈ 8.81 to 141 nM) | 3.9 to 62.5 (≈ 8.81 to 141 nM)
